Laboratory results reported in patent EP0991637B1, “BENZO(5,6)CYCLOHEPTA(1,2-B)PYRIDINE DERIVATIVES AS FARNESYL PROTEIN TRANSFERASE INHIBITORS” (SCHERING CORPORATION, priority 1997, dated 1998).

Experiments:
COS Cell = COS Cell IC50 (Cell-Based Assay), procedure of WO 95/10516; details: range stated for the whole group of compounds
Method: FPT IC50 (inhibition of farnesyl protein transferase, in vitro enzyme assay) and COS Cell IC50 (Cell-Based Assay) were determined following the assay procedures described in WO 95/10516, published April 20, 1995. GGPT IC50 (inhibition of geranylgeranyl protein transferase, in vitro enzyme assay), Cell Mat Assay, and anti-tumor activity (in vivo anti-tumor studies) could be determined by the assay procedures described in WO 95/10516. The disclosure of WO 95/10516 is incorporated herein by reference thereto.

Human tumor cells = assay: Soft Agar Assay (anchorage-independent growth, colony outgrowth, MTT staining); type: cell-based; details: 0.3% agarose over 0.6% agarose, 10-16 days at 37°C under 5% CO2
Method: Anchorage-independent growth is a characteristic of tumorigenic cell lines. Human tumor cells are suspended in growth medium containing 0.3% agarose and an indicated concentration of a farnesyl transferase inhibitor. The solution is overlayed onto growth medium solidified with 0.6% agarose containing the same concentration of farnesyl transferase inhibitor as the top layer. After the top layer is solidified, plates are incubated for 10-16 days at 37°C under 5% CO2 to allow colony outgrowth. After incubation, the colonies are stained by overlaying the agar with a solution of MTT (3-[4,5-dimethyl-thiazol-2-yl]-2,5-diphenyltetrazolium bromide, Thiazolyl blue) (1 mg/mL in PBS). Colonies can be counted and the IC50's can be determined.

SMILES	IC50 (COS Cell) [nM]	IC50 (Human tumor cells) [nM]
NC(=O)[C@H]1C[C@@H]1C(=O)N1CCC([C@H]2c3ncc(Br)cc3CCc3cc(Cl)cc(Br)c32)CC1 [Compound 55.0, Trans-2(S)-[[4-(3,10-dibromo-8-chloro-6,11-dihydro-5H-benzo[5,6]cyclohepta[1,2-b]pyridin-11(R)-yl)-1-piperidinyl]carbonyl]-(S)-cyclopropanecarboxamide]	10 to 500	–
O=C(O)Cc1ccc(CC(=O)N2CCC([C@H]3c4ncc(Br)cc4CCc4cc(Cl)cc(Br)c43)CC2)cc1 [Example 3]	10 to 500	–
O=C(O)Cc1cccc(CC(=O)N2CCC([C@H]3c4ncc(Br)cc4CCc4cc(Cl)cc(Br)c43)CC2)c1 [Example 4]	10 to 500	–
CCOC(=O)C1CCC(CC(=O)N2CCC([C@H]3c4ncc(Br)cc4CCc4cc(Cl)cc(Br)c43)CC2)CC1 (stereo partly shown) [Example 8]	10 to 500	> 500
O=C(O)C1CCC(CC(=O)N2CCC([C@H]3c4ncc(Br)cc4CCc4cc(Cl)cc(Br)c43)CC2)CC1 (stereo partly shown) [Example 12]	10 to 500	–
O=C(O)CC1CCC(CC(=O)N2CCC([C@H]3c4ncc(Br)cc4CCc4cc(Cl)cc(Br)c43)CC2)CC1 (stereo partly shown) [Example 13]	10 to 500	–
O=C(O)C=C1CCC(=CC(=O)N2CCC([C@H]3c4ncc(Br)cc4CCc4cc(Cl)cc(Br)c43)CC2)CC1 [Example 14]	10 to 500	> 500
NC(=O)Cc1ccc(CC(=O)N2CCC([C@H]3c4ncc(Br)cc4CCc4cc(Cl)cc(Br)c43)CC2)cc1 [Example 15]	10 to 500	–
NC(=O)Cc1cccc(CC(=O)N2CCC([C@H]3c4ncc(Br)cc4CCc4cc(Cl)cc(Br)c43)CC2)c1 [Example 16]	10 to 500	–
COC(=O)CNC(=O)Cc1cccc(CC(=O)N2CCC([C@H]3c4ncc(Br)cc4CCc4cc(Cl)cc(Br)c43)CC2)c1 [Example 17]	10 to 500	–
COC(=O)CNC(=O)Cc1ccc(CC(=O)N2CCC([C@H]3c4ncc(Br)cc4CCc4cc(Cl)cc(Br)c43)CC2)cc1 [Example 18]	10 to 500	–
CONC(=O)Cc1ccc(CC(=O)N2CCC([C@H]3c4ncc(Br)cc4CCc4cc(Cl)cc(Br)c43)CC2)cc1 [Example 19]	10 to 500	–
NC(=O)CC1CCC(CC(=O)N2CCC([C@H]3c4ncc(Br)cc4CCc4cc(Cl)cc(Br)c43)CC2)CC1 (stereo partly shown) [Example 22]	10 to 500	–
NC(=O)C1CCC(CC(=O)N2CCC([C@H]3c4ncc(Br)cc4CCc4cc(Cl)cc(Br)c43)CC2)CC1 (stereo partly shown) [Example 23]	10 to 500	–
COC(=O)Cc1ccc(CC(=O)N2CCC([C@H]3c4ncc(Br)cc4CCc4cc(Cl)cc(Br)c43)CC2)cc1 [Example 34]	10 to 500	–
O=C(O)C[C@H]1CC[C@@H](C(=O)N2CCC([C@H]3c4ncc(Br)cc4CCc4cc(Cl)cc(Br)c43)CC2)CC1 [Example 35]	10 to 500	–
O=C(O)C[C@H]1CC[C@H](C(=O)N2CCC([C@H]3c4ncc(Br)cc4CCc4cc(Cl)cc(Br)c43)CC2)CC1 [Example 36]	10 to 500	–
